Data as given in patent US20180186742A1, “PICOLINAMIDES AS FUNGICIDES” (Dow AgroSciences LLC, priority 2017, published 2018).
Read-outs that look alike come from different tables or passages of the source.

Key:
Zymoseptoria tritici = assay: Leaf blotch of wheat (SEPTTR), disease control on wheat seedlings; type: in vivo; settings: for pest or weed control at 100 ppm: high volume application at 100 ppm; for pest or weed control at 121.5 g/ha: low volume application at 121.5 g/H
How it was run: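 Z. tritici spores were inoculated onto wheat seedlings (Yuma, first leaf emerged) either before or after treatment. Treatment was an automated spray to run-off of acetone/Triton X-100 water solutions, or a track spray of EC formulations with 0.1% Trycol 5941. Plants were held in dew chambers at 20 °C and then a greenhouse at 20 °C. First-leaf severity (0–100%) was converted to percent control against untreated plants.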

Puccinia triticina = assay: Wheat brown rust (PUCCRT), disease control on wheat seedlings; type: in vivo; settings: for pest or weed control at 100 ppm: high volume application at 100 ppm; for pest or weed control at 121.5 g/ha: low volume application at 121.5 g/H
How it was run: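 Compounds in acetone, diluted with nine volumes of water containing 110 ppm Triton X-100, sprayed to run-off on first-leaf Yuma wheat seedlings; track-spray tests used EC formulations with 0.1% Trycol 5941. Puccinia triticina spores applied before or after treatment. Overnight dark dew room at 22° C, 100% humidity, then greenhouse at 24° C.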

[1] = 24 h, 1 Day Protectant, read-out: SEPTTR disease control, 1DP, HV activity
[2] = 72 h, 3 Day Curative, read-out: SEPTTR disease control, 3DC, HV activity
[3] = 24 h, 1 Day Protectant, read-out: PUCCRT disease control, 1DP, HV activity
[4] = 72 h, 3 Day Curative, read-out: PUCCRT disease control, 3DC, HV activity
[5] = 24 h, 1 Day Protectant, read-out: SEPTTR disease control, 1DP, LV activity
[6] = 72 h, 3 Day Curative, read-out: SEPTTR disease control, 3DC, LV activity
[7] = 24 h, 1 Day Protectant, read-out: PUCCRT disease control, 1DP, LV activity
[8] = 72 h, 3 Day Curative, read-out: PUCCRT disease control, 3DC, LV activity

Row | Structure (SMILES) | pest or weed control at 100 ppm (Zymoseptoria tritici; [1]) [%] | pest or weed control at 100 ppm (Zymoseptoria tritici; [2]) [%] | pest or weed control at 100 ppm (Puccinia triticina; [3]) [%] | pest or weed control at 100 ppm (Puccinia triticina; [4]) [%] | pest or weed control at 121.5 g/ha (Zymoseptoria tritici; [5]) [%] | pest or weed control at 121.5 g/ha (Puccinia triticina; [7]) [%] | pest or weed control at 121.5 g/ha (Puccinia triticina; [8]) [%] | also measured
1 | COc1ccnc(C(=O)NCC(=O)O[C@@H](C)[C@H](c2ccc(F)cc2C)C(C)C)c1O [Compound 317] | < 80 | < 80 | > 80 | > 80 |  |  |  | 
2 | COc1ccnc(C(=O)N[C@@H](C)C(=O)O[C@@H](C)[C@H](c2ccc(F)cc2)C2CC2)c1OC(C)=O [Compound 170] |  |  |  |  | > 80 | > 80 | > 80 | pest or weed control at 121.5 g/ha (Zymoseptoria tritici; [6]): > 80%
3 | COc1ccnc(C(=O)N[C@@H](C)C(=O)O[C@@H](C)[C@H](c2ccc(F)cc2C)C2CCCCC2)c1O [Compound 123] | > 80 | > 80 | > 80 | > 80 |  |  |  | 
4 | COc1ccnc(C(=O)N[C@@H](C)C(=O)O[C@@H](C)[C@H](c2cc(C)ccc2C)C(C)C)c1O [Compound 321] | < 80 | < 80 | > 80 | > 80 |  |  |  | 
5 | CCC(CC)[C@@H](c1ccccc1)C(C)OC(=O)[C@H](C)NC(=O)c1nccc(OC)c1OCOC(C)=O (some centres unmarked) [Compound 174] |  |  |  |  | > 80 | > 80 | > 80 | pest or weed control at 121.5 g/ha (Zymoseptoria tritici; [6]): > 80%
6 | COc1ccc([C@H](C(C)C)[C@H](C)OC(=O)[C@H](C)NC(=O)c2nccc(OC)c2OC(C)=O)c(OC)c1 [Compound 262] |  |  |  |  | < 80 | > 80 | < 80 | pest or weed control at 121.5 g/ha (Zymoseptoria tritici; [6]): < 80%
7 | CCC(CC)[C@@H](c1ccccc1C)[C@H](C)OC(=O)[C@H](C)NC(=O)c1nccc(OC)c1OC(C)=O [Compound 385] |  |  |  |  |  |  |  | pest or weed control at 121.5 g/ha (Zymoseptoria tritici; 24 h, 1 Day Protectant, wheat leaf blotch, read-out: SEPTTR 1DP disease control, LV activity): > 80%; pest or weed control at 121.5 g/ha (Zymoseptoria tritici; 72 h, 3 Day Curative, wheat leaf blotch, read-out: SEPTTR 3DC disease control, LV activity): > 80%; pest or weed control at 121.5 g/ha (Puccinia triticina; 24 h, 1 Day Protectant, wheat brown rust, read-out: PUCCRT 1DP disease control, LV activity): > 80%; pest or weed control at 121.5 g/ha (Puccinia triticina; 72 h, 3 Day Curative, wheat brown rust, read-out: PUCCRT 3DC disease control, LV activity): > 80%
8 | COc1ccnc(C(=O)N[C@@H](C)C(=O)O[C@@H](C)[C@H](c2cccc(C)c2C)C(C)C)c1O [Compound 326] | < 80 | > 80 | > 80 | > 80 |  |  |  | 
9 | COc1cc(F)ccc1[C@@H](C1CCCC1)[C@H](C)OC(=O)[C@H](C)NC(=O)c1nccc(OC)c1O [Compound 140] | < 0 | < 80 | > 80 | > 80 |  |  |  | 
10 | COc1ccnc(C(=O)N[C@@H](C)C(=O)O[C@@H](C)[C@H](c2ccc(F)cc2C)C2CCCC2)c1O [Compound 122] | > 80 | < 80 | > 80 | > 80 |  |  |  | 
11 | COc1ccnc(C(=O)N[C@@H](C)C(=O)O[C@@H](C)[C@@H](c2ccc(F)cc2C)C(C)C)c1O [Compound 116] | < 0 | < 80 | > 80 | < 0 |  |  |  | 
12 | COc1ccnc(C(=O)N[C@@H](C)C(=O)O[C@@H](C)[C@H](c2ccc(OC(C)C)cc2)C(C)C)c1O [Compound 336] | < 80 | < 80 | > 80 | < 80 |  |  |  | 
13 | COc1ccnc(C(=O)N[C@@H](C)C(=O)O[C@@H](C)[C@H](c2ccc(C)cc2)C2CC2)c1OC(C)=O [Compound 166] |  |  |  |  | < 80 | > 80 | > 80 | pest or weed control at 121.5 g/ha (Zymoseptoria tritici; [6]): > 80%
14 | COCCC(=O)Oc1c(OC)ccnc1C(=O)N[C@@H](C)C(=O)O[C@@H](C)[C@H](c1ccc(OC)c(F)c1)C(C)C [Compound 248] |  |  |  |  | < 80 | < 80 | < 80 | 
15 | COc1ccc([C@H](C(C)C)[C@H](C)OC(=O)[C@H](C)NC(=O)c2nccc(OC)c2OCOC(C)=O)c(C)c1 [Compound 260] |  |  |  |  | > 80 | > 80 | > 80 | 
16 | COc1ccnc(C(=O)N[C@@H](C)C(=O)O[C@@H](C)[C@@H](c2ccc(C)cc2C)C2CCCCC2)c1O [Compound 133] | > 80 | < 80 | > 80 | < 80 |  |  |  | 
17 | COc1cc(F)ccc1[C@H](C(C)C)[C@H](C)OC(=O)[C@H](C)NC(=O)c1nccc(OC)c1O [Compound 148] | < 0 | < 80 | < 80 | > 80 |  |  |  | 
18 | COc1cc(C)ccc1[C@H](C(C)C)[C@H](C)OC(=O)[C@H](C)NC(=O)c1nccc(OC)c1OC(C)=O [Compound 253] |  |  |  |  | < 80 | > 80 | > 80 | 
19 | COc1ccnc(C(=O)N[C@@H](C)C(=O)O[C@@H](C)[C@@H](c2ccccc2)C2CCCC2)c1OC(C)=O [Compound 161] |  |  |  |  | < 80 | > 80 | < 80 | pest or weed control at 121.5 g/ha (Zymoseptoria tritici; [6]): > 80%
20 | COc1ccnc(C(=O)N[C@@H](C)C(=O)O[C@@H](C)[C@@H](c2ccc(F)cc2C)C2CCC2)c1O [Compound 121] | < 80 | > 80 | > 80 | < 80 |  |  |  | 
21 | COc1cc(F)ccc1[C@H](C1CCCCC1)[C@H](C)OC(=O)[C@H](C)NC(=O)c1nccc(OC)c1O [Compound 143] | > 80 | < 80 | > 80 | > 80 |  |  |  | 
22 | COc1ccnc(C(=O)N[C@@H](C)C(=O)O[C@@H](C)[C@@H](c2ccc(C)cc2C)C2CCC2)c1O [Compound 149] | < 80 | > 80 | < 80 | < 80 |  |  |  | 
23 | COc1ccnc(C(=O)N[C@@H](C)C(=O)O[C@@H](C)[C@@H](c2ccccc2)C2CCCC2)c1OCOC(C)=O [Compound 163] |  |  |  |  | < 80 | > 80 | < 80 | pest or weed control at 121.5 g/ha (Zymoseptoria tritici; [6]): > 80%
24 | COc1ccnc(C(=O)N[C@@H](C)C(=O)O[C@@H](C)[C@H](c2ccc(C)cc2)C(C)C)c1OCOC(C)=O [Compound 255] |  |  |  |  | < 80 | > 80 | > 80 | 
25 | CCC(C)[C@H](c1ccc(F)cc1OC)[C@H](C)OC(=O)[C@H](C)NC(=O)c1nccc(OC)c1O (some centres unmarked) [Compound 141] | < 0 | > 80 | < 80 | > 80 |  |  |  | 
26 | COc1ccnc(C(=O)N[C@@H](C)C(=O)O[C@@H](C)[C@H](c2ccc(C)cc2)C2CC2)c1OCOC(C)=O [Compound 167] |  |  |  |  | > 80 | > 80 | > 80 | pest or weed control at 121.5 g/ha (Zymoseptoria tritici; [6]): > 80%
27 | COc1ccnc(C(=O)N[C@@H](C)C(=O)O[C@H](C)[C@H](c2ccc(F)cc2C)C2CCCCC2)c1O [Compound 129] | > 80 | < 80 | > 80 | < 0 |  |  |  | 
